Experimental data: patent publication US20230085307A1, “PYRIDAZINONE COMPOUND AND HERBICIDE” (NISSAN CHEMICAL CORPORATION, priority 2019, published 2023)

What was measured:
chickweed [1] = assay: Test Example 4: herbicidal effect by soil treatment (Table 19, symbol P); type: in vivo, common chickweed (Stellaria media); details: amount of applied herbicide 320 g/ha
Summary of the method: (§1)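 Emulsion of test compound, water-diluted to predetermined amount, sprayed on soil after sowing (seed depth ~1.5 cm, sterilized diluvial soil). Greenhouse, 25–30° C. Effect graded at three weeks post-spray.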

barnyard grass [2] = assay: Test Example 3: herbicidal effect by foliage application, Wagner pot (Table 18, symbol H); type: in vivo, barnyard grass (Echinochloa crus-galli)
Summary of the method: (§2)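 Plants were sown in alluvial soil held under 0.1–0.5 cm standing water and grown 14 days in a greenhouse at 25–30 °C. An emulsifiable formulation, water-diluted to the set dose, was then sprayed onto the foliage, and effects were scored three weeks later using previously defined criteria.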

wild oat [3] = assay: Test Example 4: herbicidal effect by soil treatment (Table 19, symbol I); type: in vivo, wild oat (Avena fatua); details: amount of applied herbicide 320 g/ha
Summary of the method: as §1

blackgrass [4] = assay: Test Example 5: herbicidal effect by foliage application, plastic box (Table 20, symbol J); type: in vivo, blackgrass (Alopecurus myosuroides); details: foliage application, 320 g/ha, three weeks after application
Summary of the method: (§3)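 Post-emergence foliar test in sterilized diluvial soil. Compound applied as water-diluted emulsion at a predetermined rate to 14-day-old plants; evaluation at three weeks.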

green foxtail [5] = assay: Test Example 4: herbicidal effect by soil treatment (Table 19, symbol G); type: in vivo, green foxtail (Setaria viridis); details: amount of applied herbicide 320 g/ha
Summary of the method: as §1

redroot pigweed [6] = assay: Test Example 4: herbicidal effect by soil treatment (Table 19, symbol N); type: in vivo, redroot pigweed (Amaranthus retroflexus); details: amount of applied herbicide 320 g/ha
Summary of the method: as §1

southern crabgrass [7] = assay: Test Example 4: herbicidal effect by soil treatment (Table 19, symbol F); type: in vivo, southern crabgrass (Digitaria ciliaris); details: amount of applied herbicide 320 g/ha
Summary of the method: as §1

barnyard grass [8] = assay: Test Example 4: herbicidal effect by soil treatment (Table 19, symbol H); type: in vivo, barnyard grass (Echinochloa crus-galli); details: amount of applied herbicide 320 g/ha
Summary of the method: as §1

chickweed [9] = assay: Test Example 5: herbicidal effect by foliage application, plastic box (Table 20, symbol P); type: in vivo, common chickweed (Stellaria media); details: foliage application, 320 g/ha, three weeks after application
Summary of the method: as §3

false cleavers [10] = assay: Test Example 5: herbicidal effect by foliage application, plastic box (Table 20, symbol Q); type: in vivo, false cleavers (Galium spurium); details: foliage application, 320 g/ha, three weeks after application
Summary of the method: as §3

green foxtail [11] = assay: Test Example 5: herbicidal effect by foliage application, plastic box (Table 20, symbol G); type: in vivo, green foxtail (Setaria viridis); details: foliage application, 320 g/ha, three weeks after application
Summary of the method: as §3

velvetleaf [12] = assay: Test Example 5: herbicidal effect by foliage application, plastic box (Table 20, symbol M); type: in vivo, velvetleaf (Abutilon theophrasti); details: foliage application, 320 g/ha, three weeks after application
Summary of the method: as §3

southern crabgrass [13] = assay: Test Example 5: herbicidal effect by foliage application, plastic box (Table 20, symbol F); type: in vivo, southern crabgrass (Digitaria ciliaris); details: foliage application, 320 g/ha, three weeks after application
Summary of the method: as §3

rice flat sedge = assay: Test Example 3: herbicidal effect by foliage application, Wagner pot (Table 18, symbol E); type: in vivo, rice flat sedge (Cyperus iria)
Summary of the method: as §2

false cleavers [14] = assay: Test Example 4: herbicidal effect by soil treatment (Table 19, symbol Q); type: in vivo, false cleavers (Galium spurium); details: amount of applied herbicide 320 g/ha
Summary of the method: as §1

blackgrass [15] = assay: Test Example 4: herbicidal effect by soil treatment (Table 19, symbol J); type: in vivo, blackgrass (Alopecurus myosuroides); details: amount of applied herbicide 320 g/ha
Summary of the method: as §1

velvetleaf [16] = assay: Test Example 4: herbicidal effect by soil treatment (Table 19, symbol M); type: in vivo, velvetleaf (Abutilon theophrasti); details: amount of applied herbicide 320 g/ha
Summary of the method: as §1

wild oat [17] = assay: Test Example 5: herbicidal effect by foliage application, plastic box (Table 20, symbol I); type: in vivo, wild oat (Avena fatua); details: foliage application, 320 g/ha, three weeks after application
Summary of the method: as §3

Italian ryegrass [18] = assay: Test Example 4: herbicidal effect by soil treatment (Table 19, symbol K); type: in vivo, Italian ryegrass (Lolium multiflorum); details: amount of applied herbicide 320 g/ha
Summary of the method: as §1

persian speedwell [19] = assay: Test Example 4: herbicidal effect by soil treatment (Table 19, symbol R); type: in vivo, Persian speedwell (Veronica persica); details: amount of applied herbicide 320 g/ha
Summary of the method: as §1

windgrass [20] = assay: Test Example 5: herbicidal effect by foliage application, plastic box (Table 20, symbol L); type: in vivo, windgrass (Apera spica-venti); details: foliage application, 320 g/ha, three weeks after application
Summary of the method: as §3

lambsquarters [21] = assay: Test Example 5: herbicidal effect by foliage application, plastic box (Table 20, symbol O); type: in vivo, lambsquarters (Chenopodium album); details: foliage application, 320 g/ha, three weeks after application
Summary of the method: as §3

lambsquarters [22] = assay: Test Example 4: herbicidal effect by soil treatment (Table 19, symbol O); type: in vivo, lambsquarters (Chenopodium album); details: amount of applied herbicide 320 g/ha
Summary of the method: as §1

redroot pigweed [23] = assay: Test Example 5: herbicidal effect by foliage application, plastic box (Table 20, symbol N); type: in vivo, redroot pigweed (Amaranthus retroflexus); details: foliage application, 320 g/ha, three weeks after application
Summary of the method: as §3

windgrass [24] = assay: Test Example 4: herbicidal effect by soil treatment (Table 19, symbol L); type: in vivo, windgrass (Apera spica-venti); details: amount of applied herbicide 320 g/ha
Summary of the method: as §1

Italian ryegrass [25] = assay: Test Example 5: herbicidal effect by foliage application, plastic box (Table 20, symbol K); type: in vivo, Italian ryegrass (Lolium multiflorum); details: foliage application, 320 g/ha, three weeks after application
Summary of the method: as §3

persian speedwell [26] = assay: Test Example 5: herbicidal effect by foliage application, plastic box (Table 20, symbol R); type: in vivo, Persian speedwell (Veronica persica); details: foliage application, 320 g/ha, three weeks after application
Summary of the method: as §3

barnyard grass [27] = assay: Test Example 5: herbicidal effect by foliage application, plastic box (Table 20, symbol H); type: in vivo, barnyard grass (Echinochloa crus-galli); details: foliage application, 320 g/ha, three weeks after application
Summary of the method: as §3

Chinese sprangletop = assay: Test Example 3: herbicidal effect by foliage application, Wagner pot (Table 18, symbol D); type: in vivo, chinese sprangletop (Leptochloa chinensis)
Summary of the method: as §2

[28] = amount of applied herbicide 320 g/ha

## CCCC(=O)Oc1c(C)nn(C)c(=O)c1-c1c(-c2ccc(F)cc2)sc2cc(Cl)ccc12 [3-032]
Chickweed [1]
  P: chickweed, herbicidal effect grade: 4 (Herbicidal rate of 70% or more and less than 90%)
Barnyard grass [2]; [28]
  herbicidal effect on H: barnyard grass: 5 (Herbicidal rate of 90% or more (almost completely withered))
Wild oat [3]
  I: wild oat, herbicidal effect grade: 0 (Herbicidal rate of 5% or less (almost no effect))
Blackgrass [4]
  J: blackgrass, herbicidal effect grade: 4 (Herbicidal rate of 70% or more and less than 90%)
Green foxtail [5]
  G: green foxtail, herbicidal effect grade: 0 (Herbicidal rate of 5% or less (almost no effect))
Redroot pigweed [6]
  N: redroot pigweed, herbicidal effect grade: 4 (Herbicidal rate of 70% or more and less than 90%)
Southern crabgrass [7]
  F: southern crabgrass, herbicidal effect grade: 0 (Herbicidal rate of 5% or less (almost no effect))
Barnyard grass [8]
  H: barnyard grass, herbicidal effect grade: 0 (Herbicidal rate of 5% or less (almost no effect))
Chickweed [9]
  P: chickweed, herbicidal effect grade: 5 (Herbicidal rate of 90% or more (almost completely withered))
False cleavers [10]
  Q: false cleavers, herbicidal effect grade: 0 (Herbicidal rate of 5% or less (almost no effect))
Green foxtail [11]
  G: green foxtail, herbicidal effect grade: 4 (Herbicidal rate of 70% or more and less than 90%)
Velvetleaf [12]
  M: velvetleaf, herbicidal effect grade: 4 (Herbicidal rate of 70% or more and less than 90%)
Southern crabgrass [13]
  F: southern crabgrass, herbicidal effect grade: 4 (Herbicidal rate of 70% or more and less than 90%)
Rice flat sedge; [28]
  herbicidal effect on E: rice flat sedge: 3 (Herbicidal rate of 40% or more and less than 70%)
False cleavers [14]
  Q: false cleavers, herbicidal effect grade: 3 (Herbicidal rate of 40% or more and less than 70%)
Blackgrass [15]
  J: blackgrass, herbicidal effect grade: 0 (Herbicidal rate of 5% or less (almost no effect))
Velvetleaf [16]
  M: velvetleaf, herbicidal effect grade: 0 (Herbicidal rate of 5% or less (almost no effect))
Wild oat [17]
  I: wild oat, herbicidal effect grade: 5 (Herbicidal rate of 90% or more (almost completely withered))
Italian ryegrass [18]
  K: Italian ryegrass, herbicidal effect grade: 0 (Herbicidal rate of 5% or less (almost no effect))
Persian speedwell [19]
  R: persian speedwell, herbicidal effect grade: 5 (Herbicidal rate of 90% or more (almost completely withered))
Windgrass [20]
  L: windgrass, herbicidal effect grade: 5 (Herbicidal rate of 90% or more (almost completely withered))
Lambsquarters [21]
  O: lambsquarters, herbicidal effect grade: 4 (Herbicidal rate of 70% or more and less than 90%)
Lambsquarters [22]
  O: lambsquarters, herbicidal effect grade: 4 (Herbicidal rate of 70% or more and less than 90%)
Redroot pigweed [23]
  N: redroot pigweed, herbicidal effect grade: 5 (Herbicidal rate of 90% or more (almost completely withered))
Windgrass [24]
  L: windgrass, herbicidal effect grade: 3 (Herbicidal rate of 40% or more and less than 70%)
Italian ryegrass [25]
  K: Italian ryegrass, herbicidal effect grade: 4 (Herbicidal rate of 70% or more and less than 90%)
Persian speedwell [26]
  R: persian speedwell, herbicidal effect grade: 5 (Herbicidal rate of 90% or more (almost completely withered))
Barnyard grass [27]
  H: barnyard grass, herbicidal effect grade: 4 (Herbicidal rate of 70% or more and less than 90%)
Chinese sprangletop; [28]
  herbicidal effect on D: Chinese sprangletop: 3 (Herbicidal rate of 40% or more and less than 70%)

## CCCC(=O)Oc1c(C)nn(C)c(=O)c1-c1c(-c2ccc(OC)cc2)sc2cc(Cl)ccc12 [3-038]
Chickweed [1]
  P: chickweed, herbicidal effect grade: 1 (Herbicidal rate of 5% or more and less than 20%)
Barnyard grass [2]; 320 g/ha
  herbicidal effect on barnyard grass (H): 3 (Herbicidal rate of 40% or more and less than 70%)
Wild oat [3]
  I: wild oat, herbicidal effect grade: 0 (Herbicidal rate of 5% or less (almost no effect))
Blackgrass [4]
  J: blackgrass, herbicidal effect grade: 0 (Herbicidal rate of 5% or less (almost no effect))
Green foxtail [5]
  G: green foxtail, herbicidal effect grade: 0 (Herbicidal rate of 5% or less (almost no effect))
Redroot pigweed [6]
  N: redroot pigweed, herbicidal effect grade: 1 (Herbicidal rate of 5% or more and less than 20%)
Southern crabgrass [7]
  F: southern crabgrass, herbicidal effect grade: 0 (Herbicidal rate of 5% or less (almost no effect))
Barnyard grass [8]
  H: barnyard grass, herbicidal effect grade: 0 (Herbicidal rate of 5% or less (almost no effect))
Chickweed [9]
  P: chickweed, herbicidal effect grade: 3 (Herbicidal rate of 40% or more and less than 70%)
False cleavers [10]
  Q: false cleavers, herbicidal effect grade: 0 (Herbicidal rate of 5% or less (almost no effect))
Green foxtail [11]
  G: green foxtail, herbicidal effect grade: 0 (Herbicidal rate of 5% or less (almost no effect))
Velvetleaf [12]
  M: velvetleaf, herbicidal effect grade: 3 (Herbicidal rate of 40% or more and less than 70%)
Southern crabgrass [13]
  F: southern crabgrass, herbicidal effect grade: 0 (Herbicidal rate of 5% or less (almost no effect))
Rice flat sedge; 320 g/ha
  herbicidal effect on rice flat sedge (E): 3 (Herbicidal rate of 40% or more and less than 70%)
False cleavers [14]
  Q: false cleavers, herbicidal effect grade: 0 (Herbicidal rate of 5% or less (almost no effect))
Blackgrass [15]
  J: blackgrass, herbicidal effect grade: 0 (Herbicidal rate of 5% or less (almost no effect))
Velvetleaf [16]
  M: velvetleaf, herbicidal effect grade: 0 (Herbicidal rate of 5% or less (almost no effect))
Wild oat [17]
  I: wild oat, herbicidal effect grade: 0 (Herbicidal rate of 5% or less (almost no effect))
Italian ryegrass [18]
  K: Italian ryegrass, herbicidal effect grade: 0 (Herbicidal rate of 5% or less (almost no effect))
Persian speedwell [19]
  R: persian speedwell, herbicidal effect grade: 2 (Herbicidal rate of 20% or more and less than 40%)
Windgrass [20]
  L: windgrass, herbicidal effect grade: 0 (Herbicidal rate of 5% or less (almost no effect))
Lambsquarters [21]
  O: lambsquarters, herbicidal effect grade: 3 (Herbicidal rate of 40% or more and less than 70%)
Lambsquarters [22]
  O: lambsquarters, herbicidal effect grade: 3 (Herbicidal rate of 40% or more and less than 70%)
Redroot pigweed [23]
  N: redroot pigweed, herbicidal effect grade: 1 (Herbicidal rate of 5% or more and less than 20%)
Windgrass [24]
  L: windgrass, herbicidal effect grade: 0 (Herbicidal rate of 5% or less (almost no effect))
Italian ryegrass [25]
  K: Italian ryegrass, herbicidal effect grade: 0 (Herbicidal rate of 5% or less (almost no effect))
Persian speedwell [26]
  R: persian speedwell, herbicidal effect grade: 3 (Herbicidal rate of 40% or more and less than 70%)
Barnyard grass [27]
  H: barnyard grass, herbicidal effect grade: 0 (Herbicidal rate of 5% or less (almost no effect))
Chinese sprangletop; 320 g/ha
  herbicidal effect on Chinese sprangletop (D): 1 (Herbicidal rate of 5% or more and less than 20%)
